Publication PMC12102262 (Nature Communications, 2025)

Assays:
[1] = molecular target: T1, EML4-ALK (Homo sapiens, UniProt Q9HC35+Q9UM73); assay: EML4-ALK degradation in BaF3-EML4-ALK cells by immunoblotting; assay type: cell-based; settings: 1 μM, same time points
[2] = molecular target: GID4 and ALK (Homo sapiens, UniProt Q8IVV7+Q9UM73); assay: NanoBRET cellular ternary complex formation assay, HEK293T cells; assay type: cell-based; settings: 6 h, increasing concentrations
[3] = molecular target: T1, EML4-ALK; assay: EML4-ALK protein levels in H3122 xenograft tumors, I.P. dosing, immunoblotting; assay type: in vivo, nude mice; settings: 10 mg/kg I.P. every other day, 8 doses
[4] = tested on: BaF3-EML4-ALK cells; assay: CCK8 cell viability time course, BaF3-EML4-ALK cells; assay type: cell-based; settings: 1 μM

Sequence of GID4 and ALK (Q9UM73 1094-1400 limits assumed): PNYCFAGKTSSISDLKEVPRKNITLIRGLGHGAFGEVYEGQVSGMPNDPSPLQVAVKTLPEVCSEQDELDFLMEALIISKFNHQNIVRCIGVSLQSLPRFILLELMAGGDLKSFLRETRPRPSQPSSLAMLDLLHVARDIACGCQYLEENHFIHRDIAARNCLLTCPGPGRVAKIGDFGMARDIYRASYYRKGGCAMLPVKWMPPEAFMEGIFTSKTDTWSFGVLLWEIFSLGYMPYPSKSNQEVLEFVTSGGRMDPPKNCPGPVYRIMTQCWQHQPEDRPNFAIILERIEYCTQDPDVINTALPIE
Sequence of GID4 and ALK (Q8IVV7 whole entry): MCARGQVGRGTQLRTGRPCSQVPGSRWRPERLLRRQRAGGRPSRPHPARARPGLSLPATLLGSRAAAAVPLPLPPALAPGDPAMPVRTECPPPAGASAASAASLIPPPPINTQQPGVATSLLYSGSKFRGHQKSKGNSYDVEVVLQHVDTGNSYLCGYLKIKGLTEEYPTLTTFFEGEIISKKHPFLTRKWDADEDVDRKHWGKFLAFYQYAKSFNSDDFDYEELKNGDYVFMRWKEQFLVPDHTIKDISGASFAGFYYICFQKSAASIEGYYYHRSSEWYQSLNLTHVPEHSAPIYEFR

COc1cc(N2CCC(N3CCN(C)CC3)CC2)ccc1Nc1ncc(Cl)c(Nc2ccccc2P(C)(C)=O)n1 [Brigatinib]
effect on levels of EML4-ALK [1]: had no effect | BRET signal between GID4 and ALK [2]: did not induce any BRET signal | effect on EML4-ALK protein levels in tumors [3]: failed to reduce | time post-treatment at which cell proliferation is inhibited [4]: 0.5 h
